In US20230070861A1, “COMPOSITIONS AND METHODS FOR TREATING HEPATITIS B” (priority 2019, published 2023):

System: HBV
Assay: HBV markers in HBV-infected primary human hepatocyte (PHH) co-culture
Type: cell-based
Protocol: A system comprising HBV-infected primary human hepatocytes (PHHs) was established by persistent HBV infection for over 30 days in a self-assembling, primary hepatocyte co-culture system (FIG. 12A). To generate the co-cultures system, primary human hepatocytes (PHH) (BioIVT) were plated at 350 k cells per well in a Collagen-Type I coated 24-well plate (Corning, 354408), and incubated at 37° C., 5% C02 to generate an adherent cell monolayer. 4 hrs post plating, plated hepatocytes were washed with CP medium (BioIVT) to remove any unadhered cells. 3T3-J2 murine embryonic fibroblasts (Kerafast (distributed from Howard Green (Harvard), Boston) were seeded at a ratio of 95% hepatocyte:5% fibroblast per well and cultured at 37° C., 5% C02 for an additional 12 hours to form co-cultures. Culture medium was replaced every 2 days (500 μL per well) for continued maintenance. Shown in FIG. 12C are images of transduced primary hepatocytes from two human hepatocyte donors, isolated from two different human livers. They were isolated, cryopreserved, and distributed for sale for research purposes by BioIVT (Maryland, US).
On the second day, post hepatocyte co-culture formation, lentivirus was added at an MOI 500 dropwise into culture medium per well. Co-cultures were transduced for 16 hours, prior to changing media for fresh CP medium (BioIVT). Culture medium was replaced every 2 days (500 μL per well) for continued maintenance. Protein expression occurs over 7 days period in hepatic co-cultures. At day 7 post transduction, co-cultures were transfected using lipofection based reagents co-formulated with gRNA and base-editor mRNA. Cells were lysed and harvested for gDNA 48 hours post transfection. FIG. 12B provides a timeline of the in vitro transduction schedule in either hepatocyte monolayers or hepatocyte co-cultures showing representative time points. Importantly, PHH cultures not treated with polyethylene glycol (PEG) during infection tend to have very low percentages of HBV infected PHH cells.
The infected cells, as gauged by HBV markers, respond to treatment as expected. […] The amounts of extracellular HBV DNA detected in the treated PHH cultures were similar to the amount observed in negative control cell cultures.
The experiments employed the approach using the HBV-infected PHH culture system and transfection of the PHH with components (base editors) of the base editor system as depicted in FIG. 19. Primary hepatocytes (PHH) co-cultures were infected with HBV in order to test antiviral efficacy of the base editors. The base editing reagents or components (base editor mRNA and synthetic gRNA) were transfected via lipofection twice over the course of two weeks. The first transfection was performed 3 days after infection to allow for complete formation of viral covalently closed circular DNA (cccDNA) at the time of the transfection. Extracellular parameters (HBsAg, HBeAg, and HBV DNA) were monitored over the course of the experiment and intracellular parameters (HBV DNA, viral RNA, and editing) were monitored at the end of the experiment. Briefly, on Day 0, PHH were infected with HBV (MOI=500). On Day 3 after HBV infection, the cells were transfected with base editing components, e.g., a BE and gRNA, or control(s). On Day 10, PHHs were subjected to another round of transfection. At the termination of the experiment, e.g., Day 17 or longer, e.g., Day 25, the PHH were lysed and extracellular amounts of HBsAg, HBeAg and HBV DNA were assessed. Also assessed were intracellular amounts of HBV DNA, viral RNA and the efficacy of base editing by the components of the base editor system versus control(s). Transfection details: RNA format, 800 ng total RNA per well in a 24 well plate (600 ng base editor+200 ng gRNA) transfected via lipofection (lipofectamin messengerMax, Thermofisher Scientific) according to the vendor's protocol. […]

[1] = 14-day PHH co-culture experiment, FIG. 20

Row | SMILES | HBV DNA [1] | HBsAg [1] | pgRNA [1] | extracellular HBV DNA (compared to untreated HBV infected control cells, by day 7 post infection, FIG. 13B) | HBV surface antigen (HBsAg) (relative to negative controls, FIG. 13C) | intracellular HBV DNA (relative to negative controls, FIG. 13D) | total HBV RNA (relative to negative controls, FIG. 13E) | pre-genomic RNA (pgRNA) (relative to negative controls, FIG. 13F)
1 | C=C1[C@H](CO)[C@@H](O)C[C@@H]1n1cnc2c(=O)[nH]c(N)nc21 [entecavir] | reduces | does not influence | does not influence | – | – | – | – | –
2 | C[C@H](Cn1cnc2c(N)ncnc21)OCP(=O)(O)O [tenofovir] | – | – | – | significantly reduced | lower levels | lower levels | lower levels | lower levels
